# Reference: US12528768B2, “Crystalline form of a 7H-benzo[7]annulene-2-carboxylic acid derivative” (Sanofi, priority 2019, dated 2026)
# How the values were obtained:
# [1] = Physical stability of the solid form (exposure to heat, moisture, nitrogen or ambient conditions, followed by XRPD); assay type: physicochemical; settings: for stability of the solid form (in words): overall judgement; for result of exposure to heat and/or moisture: heat (for example 40° C.) and/or moisture
# Description: II. X-Ray Powder Diffraction (XRPD) Analyses were carried out at room temperature on a Brucker D4 Endeavor instrument using the Bragg-Brentano parafocusing geometry. A sealed copper anode X-ray tube was used (λ, CuKα average=1.54178 Å). A LynxEye linear detector completed the setup. A counting time of few seconds per step in an angular range of from few 2-Theta degrees to several dozen 2-Theta degrees with a 0.016° step size in 20 was used for each sample analysis. For each experiment, the powder was deposited onto the surface of a sample holder.
# [2] = Water sorption isotherms using Dynamic Vapor Sorption (DVS); assay type: physicochemical; settings: for Change in Mass / Change in Mass (water uptake): DVS sorption step, 25° C.; for Change in Mass (water uptake): target RH 95%; for weight gain determined by DVS: about 25° C. (±0.2° C.)
# Description: III. Water Sorption Isotherms Using Dynamic Vapor Sorption (DVS) Experiments were performed on DVS automated gravimetric vapor sorption analyzer (Surface Measurement Systems Ltd., London, UK). Uptake and loss of water by the sample were gravimetrically measured with an ultra-microbalance with a mass resolution of ±0.1 μg. A controlled relative humidity was generated by mixing different proportions of dry and water saturated carrier gas streams. The temperature was maintained constant at 25.0±0.2° C., by enclosing the entire system in a temperature controlled incubator. A sample size between 5 and 20 mg was used. Prior to being exposed to any water vapor the sample was dried at 0% relative humidity (RH) to remove most surface water present and establish a dry, baseline mass. Next, the sample was exposed to an increasing relative humidity raised by steps of 5% RH, from 0 to 95% RH.
SMILES,stability of the solid form (in words) [1],Change in Mass ([2]; target RH 0%),Change in Mass ([2]; target RH 10%),Change in Mass ([2]; target RH 20%),Change in Mass ([2]; target RH 30%),Change in Mass ([2]; target RH 40%),Change in Mass ([2]; target RH 50%),Change in Mass ([2]; target RH 60%),Change in Mass ([2]; target RH 70%),Change in Mass ([2]; target RH 80%),Change in Mass ([2]; target RH 90%),other results
O=C(O)c1ccc2c(c1)CCCC(c1ccc(Cl)cc1Cl)=C2c1ccc(O[C@H]2CCN(CCCF)C2)cc1 [butanol solvate],physically unstable,,,,,,,,,,,result of exposure to ambient conditions or dry nitrogen [1]: converts to an amorphous form
"O=C(O)c1ccc2c(c1)CCCC(c1ccc(Cl)cc1Cl)=C2c1ccc(O[C@H]2CCN(CCCF)C2)cc1 [anhydrate crystalline Form 2, 6-(2,4-dichlorophenyl)-5-[4-[(3S)-1-(3-fluoropropyl)pyrrolidin-3-yl]oxyphenyl]-8,9-dihydro-7H-benzo[7]annulene-2-carboxylic acid]",stable,0%,0.01%,0.02%,0.02%,0.03%,0.03%,0.04%,0.05%,0.05%,0.06%,"hygroscopicity (in words) ([2]; 0 to 95% relative humidity, about 25° C., European pharmacopoeia wording): no hygroscopicity; Change in Mass (water uptake) [2]: 0.06%; conversion after exposure to moisture ([1]; exposure to moisture): does not convert to another crystalline form; effect of temperature variations on crystal structure ([1]; exposure to temperature variations): does not alter the crystal structure before its melting; stability under ambient conditions of temperature and pressure ([1]; room temperature and ambient pressure): thermodynamically more stable"
O=C(O)c1ccc2c(c1)CCCC(c1ccc(Cl)cc1Cl)=C2c1ccc(O[C@H]2CCN(CCCF)C2)cc1 [ethanol solvate],unstable,,,,,,,,,,,result of exposure to heat and/or moisture [1]: formation of the anhydrate Form 1
O=C(O)c1ccc2c(c1)CCCC(c1ccc(Cl)cc1Cl)=C2c1ccc(O[C@H]2CCN(CCCF)C2)cc1 [acetone solvate],physically unstable,,,,,,,,,,,result of exposure to ambient conditions or dry nitrogen [1]: converts to low crystalline materials
O=C(O)c1ccc2c(c1)CCCC(c1ccc(Cl)cc1Cl)=C2c1ccc(O[C@H]2CCN(CCCF)C2)cc1 [2-propanol solvate],,,,,,,,,,,,transformation upon heating ([1]; upon heating): transforms into anhydrate Form 3 which itself generally transforms into anhydrate Form 2
"O=C(O)c1ccc2c(c1)CCCC(c1ccc(Cl)cc1Cl)=C2c1ccc(O[C@H]2CCN(CCCF)C2)cc1 [anhydrate crystalline Form 3, 6-(2,4-dichlorophenyl)-5-[4-[(3S)-1-(3-fluoropropyl)pyrrolidin-3-yl]oxyphenyl]-8,9-dihydro-7H-benzo[7]annulene-2-carboxylic acid]",metastable,0.00%,0.78%,1.13%,1.29%,1.46%,2.21%,2.46%,2.62%,2.73%,2.84%,Change in Mass (water uptake) [2]: 2.92%; weight gain determined by DVS ([2]; at 95% relative humidity): 2.92 weight %
"O=C(O)c1ccc2c(c1)CCCC(c1ccc(Cl)cc1Cl)=C2c1ccc(O[C@H]2CCN(CCCF)C2)cc1 [anhydrate crystalline Form 4, 6-(2,4-dichlorophenyl)-5-[4-[(3S)-1-(3-fluoropropyl)pyrrolidin-3-yl]oxyphenyl]-8,9-dihydro-7H-benzo[7]annulene-2-carboxylic acid]",metastable,0.00%,0.07%,0.21%,0.34%,0.43%,0.51%,0.58%,0.64%,0.71%,0.75%,weight gain determined by DVS ([2]; at 90% relative humidity): 0.75 weight %
"O=C(O)c1ccc2c(c1)CCCC(c1ccc(Cl)cc1Cl)=C2c1ccc(O[C@H]2CCN(CCCF)C2)cc1 [anhydrate crystalline Form 1, 6-(2,4-dichlorophenyl)-5-[4-[(3S)-1-(3-fluoropropyl)pyrrolidin-3-yl]oxyphenyl]-8,9-dihydro-7H-benzo[7]annulene-2-carboxylic acid]",metastable,0.00%,0.20%,0.54%,0.99%,1.54%,2.09%,2.57%,2.99%,3.36%,3.76%,Change in Mass (water uptake) [2]: 4.07%; weight gain determined by DVS ([2]; at 95% relative humidity): 4.07 weight %
O=C(O)c1ccc2c(c1)CCCC(c1ccc(Cl)cc1Cl)=C2c1ccc(O[C@H]2CCN(CCCF)C2)cc1 [DCM solvate],unstable,,,,,,,,,,,result of exposure to heat and/or moisture [1]: formation of the anhydrate Form 1; result of exposure to heat and/or N2 ([1]; heat and/or N2): formation of the anhydrate Form 4
"O=C(O)c1ccc2c(c1)CCCC(c1ccc(Cl)cc1Cl)=C2c1ccc(O[C@H]2CCN(CCCF)C2)cc1 [1,4-dioxane solvate]",physically unstable,,,,,,,,,,,"conversion at room temperature ([1]; room temperature, one week): converts at room temperature to an unknown poorly crystallized solid form"
"O=C(O)c1ccc2c(c1)CCCC(c1ccc(Cl)cc1Cl)=C2c1ccc(O[C@H]2CCN(CCCF)C2)cc1 [compound of formula (1), 6-(2,4-dichlorophenyl)-5-[4-[(3S)-1-(3-fluoropropyl)pyrrolidin-3-yl]oxyphenyl]-8,9-dihydro-7H-benzo[7]annulene-2-carboxylic acid]",,,,,,,,,,,,"storage requirement for stability over time ([1]; amorphous form, industrial scale handling): needs storage under refrigerated conditions to maintain its stability over time"
O=C(O)c1ccc2c(c1)CCCC(c1ccc(Cl)cc1Cl)=C2c1ccc(O[C@H]2CCN(CCCF)C2)cc1 [THF solvate],unstable,,,,,,,,,,,result of exposure to heat and/or moisture [1]: formation of the anhydrate form 1
